Reference: PMC12190436, “5-Ene-2-arylaminothiazol-4(5H)-ones Induce Apoptosis in Breast Cancer Cells” (Cells, 2025)

What was measured:
A172 = test: MTT cell viability assay; assay type: cell-based; details: Homo sapiens
From the text: (§1) All of the tested cell lines were acquired from the American Type Culture Collection (ATCC, Manassas, VA, USA), including human breast cancer cell lines (MCF-7, MDA-MB-231), human gastric cancer cell line (AGS), human colorectal cancer cell lines (HT-29, DLD-1), human glioblastoma cancer cell lines (T98G, A172), mouse astrocyte type I clone (C8-D1A), human normal epithelial breast cells (MCF-10A) and primary dermal fibroblast (HDFa). Such cell lines as AGS, MCF-7, MDA-MB-231, A172, T98G, C8-D1A, and primary dermal fibroblast (HDFa) were cultured in complete medium–DMEM (Corning, Kennebunk, ME, USA). RPMI-1640 (ATCC, Manassas, VA, USA) was used for the DLD-1 cell line, and McCoy’s 5A (PAN-Biotech, Aidenbach, Germany) for the HT-29 cell line. To all utilized media additionally was added 10% fetal bovine serum (FBS) (Eurx, Gdansk, Poland) and 1% penicillin and streptomycin solution (Corning, Kennebunk, ME, USA). MCF-10A cells were incubated in MEGM (Mammary Epithelial Cell Growth Medium) BulletKit supplemented with penicillin/streptomycin cocktail and 5% horse serum. All cells were cultured at 37 °C in an atmosphere with 5% CO₂ in tissue culture dishes (Sarstedt, Numbrecht, Germany). For experiments, cells were washed with phosphate-buffered saline (PBS) (Corning, Kennebunk, ME, USA) followed by the addition of 0.05% trypsin with 0.02% EDTA (Corning, Kennebunk, ME, USA). Scepter 3.0 cell counter (Merck Millipore, Burlington, MA, USA) was applied before each seeding to calculate the number of cells. For the next analyses, cells were reseeded in 6-well plates, 24-well plates, and 96-well plates.
(§2) MTT (3-(4,5-dimethylthiazol-2-yl)-2,5-diphenyltetrazolium bromide) assay method was utilized to analyze compound effects on cell viability. All cell lines were seeded in 96-well plates with 1 × 10^4 cells per well. After 24 h, cells were treated with the tested compounds and reference drug at concentrations of 0.1, 1, 2.5, 5, 10, and 20 µM for 24, 48, or 72 h. Next, a solution of 3-(4,5-dimethyl-2-thiazolyl)-2,5-diphenyl-2H-tetrazolium bromide (Sigma-Aldrich, St. Louis, MO, USA) in PBS with a concentration of 5 mg/mL was prepared. After the incubation with tested compounds, 10 µL of the prepared MTT solution was applied to each well, followed by 2 h of incubation at 37 °C. Next, cells underwent lysis by adding 100 µL of pre-prepared lysing buffer (containing 25 mM HCl, 2% acetic acid, 3% DMF, and 5% SDS, with a pH of 4.7). The absorbance was measured using a UV-VIS Helios Gamma (Unicam/ThermoFisher Scientific Inc., Cleveland, OH, USA) at 570 nm wavelength. The cells incubated with vehicle substance (0.1% DMSO) were taken as controls.
(§3) To investigate the cytotoxic potential of the newly synthesized compounds, a comprehensive assessment was conducted utilizing the MTT assay. This assay was applied on a diverse panel of cell lines, such as human breast cancer cell lines (MCF-7 and MDA-MB-231), human gastric cancer cell line (AGS), human colorectal cancer cell lines (HT-29 and DLD-1), human glioblastoma cancer cell lines (T98G and A172), mouse astrocyte type I clone cells (C8-D1A), primary dermal fibroblast (HDFa), and human normal breast cells (MCF-10A) for 24, 48, and/or 72 h.

AGS = test: MTT cell viability assay; assay type: cell-based; details: Homo sapiens
From the text: as §1, §2, §3

DLD-1 = test: MTT cell viability assay; assay type: cell-based; details: Homo sapiens
From the text: as §1, §2, §3

HT-29 = test: MTT cell viability assay; assay type: cell-based; details: Homo sapiens
From the text: as §1, §2, §3

MCF-7 = test: MTT cell viability assay; assay type: cell-based; details: Homo sapiens
From the text: as §1, §2, §3

MDA-MB-231 = test: MTT cell viability assay; assay type: cell-based; details: Homo sapiens
From the text: as §1, §2, §3

[1] = tested on: Primary Dermal Fibroblast (HDFa); test: MTT cell viability assay; assay type: cell-based; details: Homo sapiens, normal cells
From the text: as §1, §2, §3

T98G = test: MTT cell viability assay; assay type: cell-based; details: Homo sapiens
From the text: as §1, §2, §3

MCF-7 cells = test: Annexin V-FITC/propidium iodide flow cytometry; assay type: cell-based, human; details: 24 h
Description: The MCF-7 cells were seeded on 6-well plates (1 × 10^5 cells per well) and incubated for 24 h. Afterwards, the cells were washed, and tested compounds (Les-6416, Les-6418, Les-6381, Les-6423, and Les-6424) were added in a concentration of 5 µM. The reference drug doxorubicin hydrochloride was applied in a concentration of 0.5 µM. The cells were incubated with the compounds for 24 h. Afterwards, the cells were washed several times with cold PBS and the cell suspensions were prepared in the binding buffer from the kit at a concentration of 1 × 10^6 cells/mL. A total of 100 µL of suspension was collected from each sample and transferred to the tubes. After that, 5 µL of Annexin V-FITC and 5 µL of propidium iodide were added. After 15 min of incubation at room temperature in a dark environment, the content of the tubes was filled with binding buffer up to 500 µL and assessed by BD FACSCanto II flow cytometer (Becton Dickinson Biosciences, San Jose, CA, USA). A total of 1 × 10^4 events were measured for each sample. The results were investigated by applying FACSDiva software Version 6.1.3. (BD Biosciences Systems, San Jose, CA, USA).
To assess the effects of novel compounds on apoptosis, we utilized flow cytometry analysis with Annexin V-FITC and Propidium Iodide double staining. In this way, we could distinguish between different cell populations based on their state: unstained or alive cells, cells stained with propidium iodide or necrotic cells, cells only stained with FITC-labeled annexin V or early apoptotic cells, and cells stained with both annexin V and propidium iodide or late apoptotic cells.

COc1cc(NC2=NC(=O)C(=Cc3ccco3)S2)cc(OC)c1OC [Les-6424, 5-(Furan-2-ylmethylene)-2-((3,4,5-trimethoxyphenyl)amino)thiazol-4(5H)-one]
IC50 (A172; A 172, A172 24 h): > 20 µM
IC50 (A172; A 172, A172 48 h): > 20 µM
IC50 (AGS; AGS 24 h): > 20 µM
IC50 (AGS; AGS 48 h): > 20 µM
IC50 (DLD-1; DLD-1 24 h): > 20 µM
IC50 (DLD-1; DLD-1 48 h): > 20 µM
IC50 (HT-29; HT-29 24 h): > 20 µM
IC50 (HT-29; HT-29 48 h): > 20 µM
IC50 (MCF-7; MCF7, MCF-7 24 h): > 20 µM
IC50 (MCF-7; MCF7, MCF-7 48 h): > 20 µM
IC50 (MCF-7; MCF7, MCF-7 72 h): > 20 µM
IC50 (MDA-MB-231; MDA-MB-231 24 h): > 20 µM
IC50 (MDA-MB-231; MDA-MB-231 48 h): > 20 µM
IC50 (MDA-MB-231; MDA-MB-231 72 h): > 20 µM
IC50 ([1]; HDFa 24 h): > 20 µM
IC50 ([1]; HDFa 48 h): > 20 µM
IC50 ([1]; HDFa 72 h): > 20 µM
IC50 (T98G; T98G 24 h): > 20 µM
IC50 (T98G; T98G 48 h): > 20 µM
proapoptotic effect in comparison to the control (MCF-7 cells; 5 µM): did not have any statistically significant results
viability at 5 µM (MCF-7 cells; Homo sapiens, MCF7, 5 µM, read-out: Viable cells, cell population): 90.4%
